Reference: paper PMC6566410, “Novel Diamide-Based Benzenesulfonamides as Selective Carbonic Anhydrase IX Inhibitors Endowed with Antitumor Activity: Synthesis, Biological Evaluation and In Silico Insights” (International Journal of Molecular Sciences, 2019)

Columns and labels:
Assay in all cases: NCI one-dose SRB assay
SR = format: cell-based, human; details: SR (Leukemia), 1.00E-5 Molar
Experimental: First, all diamide-based benzenesulfonamides herein reported 5a–h were screened for their antitumor activity at one dose (10^−5 M) assay against a panel of sixty cancer cell lines through the National Cancer Institute (NCI) Developmental Therapeutic Program (www.dtp.nci.nih.gov), according to US-NCI protocol. The cell growth and cell viability were evaluated using the sulforhodamine B (SRB) colorimetric assay.
This assay was carried out according to the protocol of the Drug Evaluation Branch, NCI, Bethesda. The cell growth and cell viability were evaluated using the sulforhodamine B (SRB) colorimetric assay, as reported earlier.

EKVX = format: cell-based; details: Homo sapiens, EKVX (Non-Small Cell Lung Cancer), 1.00E-5 Molar, read-out: Growth Percent
Method in brief: (§1)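 Using the US-NCI one-dose format, the sixty cancer cell lines received compound at 10^−5 M, and sulforhodamine B colorimetry was used to assess growth and viability.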

NCI/ADR-RES = format: cell-based; details: Homo sapiens, NCI/ADR-RES (Ovarian Cancer), 1.00E-5 Molar, read-out: Growth Percent
Method in brief: as §1

HL-60(TB) = format: cell-based; details: Homo sapiens, HL-60(TB) (Leukemia), 1.00E-5 Molar, read-out: Growth Percent
Method in brief: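 NCI-60 one-dose protocol: compound at 10^−5 M; growth and viability quantified with SRB dye.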

DU-145 = format: cell-based; details: Homo sapiens, DU-145 (Prostate Cancer), 1.00E-5 Molar, read-out: Growth Percent
Method in brief: as §1

786-0 = format: cell-based; details: Homo sapiens, 786-0 (Renal Cancer), 1.00E-5 Molar, read-out: Growth Percent
Method in brief: as §1

SNB-75 = format: cell-based; details: Homo sapiens, SNB-75 (CNS Cancer), 1.00E-5 Molar, read-out: Growth Percent
Method in brief: as §1

RXF 393 = format: cell-based; details: Homo sapiens, RXF 393 (Renal Cancer), 1.00E-5 Molar, read-out: Growth Percent
Method in brief: as §1

SN12C = format: cell-based; details: Homo sapiens, SN12C (Renal Cancer), 1.00E-5 Molar, read-out: Growth Percent
Method in brief: as §1

CAKI-1 = format: cell-based; details: Homo sapiens, CAKI-1 (Renal Cancer), 1.00E-5 Molar, read-out: Growth Percent
Method in brief: as §1

NCI-H23 = format: cell-based; details: Homo sapiens, NCI-H23 (Non-Small Cell Lung Cancer), 1.00E-5 Molar, read-out: Growth Percent
Method in brief: as §1

OVCAR-4 = format: cell-based; details: Homo sapiens, OVCAR-4 (Ovarian Cancer), 1.00E-5 Molar, read-out: Growth Percent
Method in brief: as §1

NCI-H226 = format: cell-based; details: Homo sapiens, NCI-H226 (Non-Small Cell Lung Cancer), 1.00E-5 Molar, read-out: Growth Percent
Method in brief: as §1

A498 = format: cell-based; details: Homo sapiens, A498 (Renal Cancer), 1.00E-5 Molar, read-out: Growth Percent
Method in brief: as §1

HCT-15 = format: cell-based; details: Homo sapiens, HCT-15 (Colon Cancer), 1.00E-5 Molar, read-out: Growth Percent
Method in brief: as §1

NCI-H322M = format: cell-based; details: Homo sapiens, NCI-H322M (Non-Small Cell Lung Cancer), 1.00E-5 Molar, read-out: Growth Percent
Method in brief: as §1

MDA-MB-435 = format: cell-based; details: Homo sapiens, MDA-MB-435 (Melanoma), 1.00E-5 Molar, read-out: Growth Percent
Method in brief: as §1

HOP-92 = format: cell-based; details: Homo sapiens, HOP-92 (Non-Small Cell Lung Cancer), 1.00E-5 Molar, read-out: Growth Percent
Method in brief: as §1

COLO 205 = format: cell-based; details: Homo sapiens, COLO 205 (Colon Cancer), 1.00E-5 Molar, read-out: Growth Percent
Method in brief: as §1

OVCAR-8 = format: cell-based; details: Homo sapiens, OVCAR-8 (Ovarian Cancer), 1.00E-5 Molar, read-out: Growth Percent
Method in brief: as §1

SK-MEL-5 = format: cell-based; details: Homo sapiens, SK-MEL-5 (Melanoma), 1.00E-5 Molar, read-out: Growth Percent
Method in brief: as §1

K-562 = format: cell-based; details: Homo sapiens, K562, K-562 (Leukemia), 1.00E-5 Molar, read-out: Growth Percent
Method in brief: as §1

HOP-62 = format: cell-based; details: Homo sapiens, HOP-62 (Non-Small Cell Lung Cancer), 1.00E-5 Molar, read-out: Growth Percent
Method in brief: as §1

IGROV1 = format: cell-based; details: Homo sapiens, IGROV-1, IGROV1 (Ovarian Cancer), 1.00E-5 Molar, read-out: Growth Percent
Method in brief: as §1

SF-268 = format: cell-based; details: Homo sapiens, SF-268 (CNS Cancer), 1.00E-5 Molar, read-out: Growth Percent
Method in brief: as §1

OVCAR-5 = format: cell-based; details: Homo sapiens, OVCAR-5 (Ovarian Cancer), 1.00E-5 Molar, read-out: Growth Percent
Method in brief: as §1

NCI-H522 = format: cell-based; details: Homo sapiens, NCI-H522 (Non-Small Cell Lung Cancer), 1.00E-5 Molar, read-out: Growth Percent
Method in brief: as §1

SK-OV-3 = format: cell-based; details: Homo sapiens, SK-OV-3 (Ovarian Cancer), 1.00E-5 Molar, read-out: Growth Percent
Method in brief: as §1

MCF7 = format: cell-based; details: Homo sapiens, MCF7 (Breast Cancer), 1.00E-5 Molar, read-out: Growth Percent
Method in brief: as §1

UACC-257 = format: cell-based; details: Homo sapiens, UACC-257 (Melanoma), 1.00E-5 Molar, read-out: Growth Percent
Method in brief: as §1

SF-539 = format: cell-based; details: Homo sapiens, SF-539 (CNS Cancer), 1.00E-5 Molar, read-out: Growth Percent
Method in brief: as §1

Structure (SMILES) | activity at 10 µM (EKVX) | activity at 10 µM (NCI/ADR-RES) | activity at 10 µM (HL-60(TB)) | activity at 10 µM (DU-145) | activity at 10 µM (786-0) | activity at 10 µM (SNB-75) | activity at 10 µM (RXF 393) | activity at 10 µM (SN12C) | activity at 10 µM (CAKI-1) | activity at 10 µM (NCI-H23) | activity at 10 µM (OVCAR-4) | activity at 10 µM (NCI-H226) | activity at 10 µM (A498) | activity at 10 µM (HCT-15) | activity at 10 µM (NCI-H322M) | activity at 10 µM (MDA-MB-435) | activity at 10 µM (HOP-92) | activity at 10 µM (COLO 205) | activity at 10 µM (OVCAR-8) | activity at 10 µM (SK-MEL-5) | other results
NS(=O)(=O)c1ccc(NC(=O)C(=Cc2ccc(Cl)cc2)NC(=O)c2ccccc2)cc1 [Compound 5a, N-(1-(4-Chlorophenyl)-3-oxo-3-((4-sulfamoylphenyl)amino)prop-1-en-2-yl)benzamide] | 99.5% | 104% | 101% | 107% | 95.9% | 86.3% | 103% | 104% | 92.5% | 103% | 95.5% | 92.9% | 104% | 106% | 108% | 98.7% | 98.8% | 104% | 97.6% | 100% | Growth Percent (SR): 96.44%; activity at 10 µM (K-562): 109%; activity at 10 µM (HOP-62): 91.9%; activity at 10 µM (IGROV1): 90.9%; activity at 10 µM (SF-268): 96%; activity at 10 µM (OVCAR-5): 105%; activity at 10 µM (NCI-H522): 90.9%; activity at 10 µM (SK-OV-3): 97%; activity at 10 µM (MCF7): 98.3%; activity at 10 µM (UACC-257): 103%; activity at 10 µM (SF-539): 98.8%
Cc1ccc(C=C(NC(=O)c2ccccc2)C(=O)Nc2ccc(S(N)(=O)=O)cc2)o1 [Compound 5h, N-(1-(5-Methylfuran-2-yl)-3-oxo-3-((4-sulfamoylphenyl)amino)prop-1-en-2-yl)benzamide] | 98% | 92.2% | 94.6% | 99.9% | 98.7% | 81.5% | 95.5% | 98.6% | 84.4% | 98.9% | 86.2% | 102% | 99.8% | 92.9% | 106% | 99.3% | 70.1% | 108% | 95.5% | 82.3% | activity at 10 µM (K-562): 96.1%; activity at 10 µM (HOP-62): 95.2%; activity at 10 µM (IGROV1): 81%; activity at 10 µM (SF-268): 100%; activity at 10 µM (OVCAR-5): 100%; activity at 10 µM (NCI-H522): 85.7%; activity at 10 µM (SK-OV-3): 96.5%; activity at 10 µM (MCF7): 97.1%; activity at 10 µM (UACC-257): 99.4%; activity at 10 µM (SF-539): 90.2%
